Structures can show the parent of a compound that is named as a salt. Where two headings read alike, the source gives them in different places.
Key:
[1] = target: T1, neuronal nicotinic acetylcholine receptors (Rattus norvegicus, UniProt P09483+P12390); assay: Binding of [3H]-cytisine to neuronal nicotinic acetylcholine receptors, crude synaptic membranes from whole rat brain
T1 construct: crude synaptic membrane preparations from whole rat brain; from tissue; host or cells: whole rat brain, crude synaptic membranes
T1 sequence (P09483 31-630): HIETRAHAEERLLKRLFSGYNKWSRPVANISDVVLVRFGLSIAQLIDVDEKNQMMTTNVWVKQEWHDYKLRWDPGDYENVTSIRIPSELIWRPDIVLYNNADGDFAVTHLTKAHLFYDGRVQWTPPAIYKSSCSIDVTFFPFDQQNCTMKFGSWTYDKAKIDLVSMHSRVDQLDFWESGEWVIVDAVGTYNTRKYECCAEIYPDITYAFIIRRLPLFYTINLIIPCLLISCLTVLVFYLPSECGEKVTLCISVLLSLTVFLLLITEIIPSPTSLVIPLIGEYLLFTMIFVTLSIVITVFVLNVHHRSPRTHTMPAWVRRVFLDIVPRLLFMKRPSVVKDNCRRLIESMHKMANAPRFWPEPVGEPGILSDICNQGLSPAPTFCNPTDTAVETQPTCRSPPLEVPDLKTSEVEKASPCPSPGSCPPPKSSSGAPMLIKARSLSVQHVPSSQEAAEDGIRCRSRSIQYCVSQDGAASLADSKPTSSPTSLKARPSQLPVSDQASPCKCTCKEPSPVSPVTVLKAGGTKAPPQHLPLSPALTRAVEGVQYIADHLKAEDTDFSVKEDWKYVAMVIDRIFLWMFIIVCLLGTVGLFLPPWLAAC
T1 sequence (P12390 25-500): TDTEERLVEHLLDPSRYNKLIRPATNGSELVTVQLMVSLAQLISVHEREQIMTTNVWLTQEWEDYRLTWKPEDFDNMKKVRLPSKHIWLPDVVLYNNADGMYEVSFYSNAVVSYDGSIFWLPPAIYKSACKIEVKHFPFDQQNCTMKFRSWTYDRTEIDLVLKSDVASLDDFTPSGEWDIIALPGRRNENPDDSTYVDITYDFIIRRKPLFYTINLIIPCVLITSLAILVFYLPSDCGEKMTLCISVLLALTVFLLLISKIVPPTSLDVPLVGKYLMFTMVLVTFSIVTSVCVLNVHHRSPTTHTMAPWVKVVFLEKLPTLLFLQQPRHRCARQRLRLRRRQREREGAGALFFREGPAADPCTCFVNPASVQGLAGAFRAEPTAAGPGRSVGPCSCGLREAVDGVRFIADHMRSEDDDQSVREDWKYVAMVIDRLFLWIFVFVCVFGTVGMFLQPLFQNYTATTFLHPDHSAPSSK
Description: The In Vitro protocols for determination of nicotinic acetylcholine channel receptor binding potencies of ligands were determined as follows.
Binding of [^3H]-cytisine ([^3 H]-CYT) to neuronal nicotinic acetylcholine receptors was accomplished using crude synaptic membrane preparations from whole rat brain (Pabreza et al., Molecular Pharmacol., 1990, 39:9). Washed membranes were stored at —80° C. prior to use. Frozen aliquots were slowly thawed and resuspended in 20 volumes of buffer (containing: 120 mM NaCl, 5 mM KCl, 2 mM MgCl2, 2 mM CaCl2 and 50 mM Tris-Cl, pH 7.4 @4° C.). After centrifuging at 20,000×g for 15 minutes, the pellets were resuspended in 30 volumes of buffer.
The test compounds were dissolved in water to make 10 mM stock solutions. Each solution was then diluted (1:100) with buffer (as above) and further taken through seven serial log dilutions of produce test solution from 10^−5 to 10^−11 M.
Homogenate (containing 125-150 μg protein) was added to triplicate tubes containing the range of concentrations of test compound described above and [^3H]-CYT (1.25 nM) in a final volume of 500 μL. Samples were incubated for 60 minutes at 4° C., then rapidly filtered through Whatman GF/B filters presoaked in 0.5% polyethyleneimine using 3×4 mL of ice-cold buffer. The filter are counted in 4 mL of Ecolume® (ICN). Nonspecific binding was determined in the presence of 10 μM (−)-nicotine and values were expressed as a percentage of total binding. IC50 values were determined with the RS-1 (BBN) nonlinear least squares curve-fitting program and IC50 values were converted to Ki values using the Cheng and Prusoff correction ([…].

[2] = system: mouse hot plate paradigm; assay: Mouse hot plate paradigm (analgesia); format: in vivo; settings: ip, 0.5 h, mice, intraperitoneal, dosed 30 minutes prior to testing, hot plate 55° C., increase in tenth jump latency relative to control, read-out: minimally effective dose (MED)
Description: An in vivo protocol was utilized to determine the effectiveness of nicotinic acetylcholine receptor ligands as analgesic agents in the mouse hot plate paradigm.
Separate groups of mice, (n=8/group) were utilized for each dose group. All drugs were administered by the intraperitoneal route of administration. Test drugs were dissolved in water to make a 6.2 mM stock solution. Animals were dosed with this solution (10 mL/kg body weight) for a 62 micromol/kg dose. Lower doses were administered similarly, following serial dilution of the stock solution in half-log increments. Animals were dosed 30 minutes prior to testing in the hot plate. The hot-plate utilized was an automated analgesia monitor (Model #AHP16AN, Omnitech Electronics, Inc. of Columbus, Ohio). The temperature of the hot plate was maintained at 55° C. and a cut-off time of 180 seconds was utilized. Latency until the tenth jump was recoreded as the dependent measure. An increase in the tenth jump latency relative to the control was considered an effect.

[3] = [3H]-cytisine 1.25 nM, whole rat brain membranes, 60 minutes at 4° C., Ki from IC50 by Cheng and Prusoff correction, read-out: Average Ki

`C[C@H]1CCN(c2ccc(Cl)nc2)C[C@H]1N` (relative stereo) [Example 39, (cis) 1-(6-chloro-3-pyridinyl)-4-methyl-3-piperidinylamine hydrochloride] gave a Ki [1] of 85 nM.

Compound `C[C@@H]1CCN(c2ccc(Cl)nc2)C[C@H]1N` (relative stereo) [Example 40, (trans) 1-(6-chloro-3-pyridinyl)-4-methyl-3-piperidinylamine hydrochloride] has a Ki [1] of 5.4 nM.

For `CN[C@H]1CCN(c2ccc(Cl)nc2)C1` [Example 1, N-[(3S)-1-(6-chloro-3-pyridinyl)pyrrolidinyl]-N-methylamine hydrochloride], the Ki [1] was 44 nM and the minimal effective dose [2] was 62 µmol/kg.

For `N[C@H]1CCN(c2ccc(Cl)nc2)C1` [Example 2, (3S)-1-(6-chloro-3-pyridinyl)pyrrolidinylamine dihydrochloride], the Ki [1] was 0.1 nM and the minimal effective dose [2] was 6.2 µmol/kg.

`CN(C)[C@H]1CCN(c2ccc(Cl)nc2)C1` [Example 3, N-[(3S)-1-(6-chloro-3-pyridinyl)pyrrolidinyl]-N,N-dimethylamine 4-methylbenzenesulfonate] gave a Ki [1] of 61 nM and a minimal effective dose [2] of 62 µmol/kg.

Work on `N[C@@H]1CCN(c2ccc(Cl)nc2)C1` [Example 4, (3R)-1-(6-chloro-3-pyridinyl)pyrrolidinylamine 4-methylbenzenesulfonate] yielded a Ki [1] of 0.22 nM and a minimal effective dose [2] of 1.9 µmol/kg.

For `CN[C@@H]1CCN(c2ccc(Cl)nc2)C1` [Example 5, N-[(3R)-1-(6-chloro-3-pyridinyl)pyrrolidinyl]-N-methylamine hydrochloride], the Ki [1] was 5.5 nM and the minimal effective dose [2] was 62 µmol/kg.

Compound `CN(C)[C@@H]1CCN(c2ccc(Cl)nc2)C1` [Example 6, N-[(3R)-1-(6-chloro-3-pyridinyl)pyrrolidinyl]-N,N-dimethylamine 4-methylbenzenesulfonate] has a Ki [1] of 100 nM.

With `NC1CCN(c2ccc(Cl)nc2)C1` (stereo not drawn) [Example 7, 1-(6-chloro-3-pyridinyl)-3-pyrrolidinylamine 4-methylbenzenesulfonate] the Ki [1] was 0.12 nM and the minimal effective dose [2] was 6.2 µmol/kg.

With `N[C@H]1CCN(c2cccnc2)C1` [Example 8, (3S)-1-(3-pyridinyl)pyrrolidinylamine 4-methylbenzenesulfonate] the Ki [1] was 0.23 nM and the minimal effective dose [2] was 19 µmol/kg.

Work on `CN[C@H]1CCN(c2cccnc2)C1` [Example 9, N-methyl-N-[(3S)-1-(3-pyridinyl)pyrrolidinyl]amine dihydrochloride] yielded a Ki [1] of 2 nM and a minimal effective dose [2] of 62 µmol/kg.

With `NC1CCN(c2cccnc2)C1` (stereo not drawn) [Example 10, 1-(3-pyridinyl)-3-pyrrolidinylamine bis(4-methylbenzenesulfonate)] the Ki [1] was 0.15 nM.

`N[C@@H]1CCN(c2cncc(C(F)(F)F)c2)C1` [Example 11, (3R)-1-[5-(trifluoromethyl)-3-pyridinyl]pyrrolidinylamine dihydrochloride] showed a Ki [1] of 3 nM.

For `CN[C@@H]1CCN(c2cncc(C(F)(F)F)c2)C1` [Example 12, N-methyl-N-{(3R)-1-[5-(trifluoromethyl)-3-pyridinyl]pyrrolidinyl}amine hydrochloride], the Ki [1, 3] was 114 nM.

`N[C@H]1CCN(c2cncc(C(F)(F)F)c2)C1` [Example 13, (3S)-1-[5-(trifluoromethyl)-3-pyridinyl]pyrrolidinylamine dihydrochloride] was tested, and the Ki [1] was 1 nM.

`CN[C@H]1CCN(c2cncc(C(F)(F)F)c2)C1` [Example 14, N-methyl-N-{(3S)-1-[5-(trifluoromethyl)-3-pyridinyl]pyrrolidinyl}amine hydrochloride] gave a Ki [1] of 6.3 nM.

With `Cc1cc(N2CC[C@@H](N)C2)cnc1Cl` [Example 15, (3R)-1-(6-chloro-5-methyl-3-pyridinyl)pyrrolidinylamine hydrochloride] the Ki [1] was 0.03 nM and the minimal effective dose [2] was 6.2 µmol/kg.

In the case of `CN[C@@H]1CCN(c2cnc(Cl)c(C)c2)C1` [Example 16, N-[(3R)-1-(6-chloro-5-methyl-3-pyridinyl)pyrrolidinyl]-N-methylamine dihydrochloride], the Ki [1] is reported as 5.1 nM and the minimal effective dose [2] is reported as 1.9 µmol/kg.

Compound `Cc1cc(N2CC[C@H](N)C2)cnc1Cl` [Example 17, (3S)-1-(6-chloro-5-methyl-3-pyridinyl)pyrrolidinylamine dihydrochloride] has a Ki [1] of 0.03 nM and a minimal effective dose [2] of 6.2 µmol/kg.

With `CN[C@H]1CCN(c2cnc(Cl)c(C)c2)C1` [Example 18, N-[(3S)-1-(6-chloro-5-methyl-3-pyridinyl)pyrrolidinyl]-N-methylamine dihydrochloride] the Ki [1] was 0.58 nM and the minimal effective dose [2] was 6.2 µmol/kg.

In the case of `N[C@H]1CCN(c2cnc(Cl)c(Cl)c2)C1` [Example 19, (3S)-1-(5,6-dichloro-3-pyridinyl)pyrrolidinylamine dihydrochloride], the Ki [1] is reported as 0.05 nM and the minimal effective dose [2] is reported as 6.2 µmol/kg.

Compound `CN[C@H]1CCN(c2cnc(Cl)c(Cl)c2)C1` [Example 20, N-[(3S)-1-(5,6-dichloro-3-pyridinyl)pyrrolidinyl]-N-methylamine hydrochloride] has a Ki [1] of 0.59 nM and a minimal effective dose [2] of 19 µmol/kg.

With `N[C@@H]1CCN(c2cnc(Cl)c(Cl)c2)C1` [Example 21, (3R)-1-(5,6-dichloro-3-pyridinyl)pyrrolidinylamine dihydrochloride] the Ki [1] was 0.13 nM and the minimal effective dose [2] was 6.2 µmol/kg.

With `CN[C@@H]1CCN(c2cnc(Cl)c(Cl)c2)C1` [Example 22, N-[(3R)-1-(5,6-dichloro-3-pyridinyl)pyrrolidinyl]-N-methylamine hydrochloride] the Ki [1] was 13 nM and the minimal effective dose [2] was 19 µmol/kg.

`COc1cc(N2CC[C@H](N)C2)cnc1Cl` [Example 23, (3S)-1-(6-chloro-5-methoxy-3-pyridinyl)pyrrolidinylamine dihydrochloride] gave a Ki [1] of 0.13 nM and a minimal effective dose [2] of 62 µmol/kg.

`CN[C@H]1CCN(c2cnc(Cl)c(OC)c2)C1` [Example 24, N-[(3S)-1-(6-chloro-5-methoxy-3-pyridinyl)pyrrolidinyl]-N-methylamine dihydrochloride] was tested, and the Ki [1] was 4.1 nM and the minimal effective dose [2] was 62 µmol/kg.

For `Cc1cc(N2CC[C@H](N)C2)cnc1F` [Example 25, (3S)-1-(6-fluoro-5-methyl-3-pyridinyl)pyrrolidinylamine hydrochloride], the Ki [1] was 0.34 nM and the minimal effective dose [2] was 6.2 µmol/kg.

With `CN[C@H]1CCN(c2cnc(F)c(C)c2)C1` [Example 26, N-[(3S)-1-(6-fluoro-5-methyl-3-pyridinyl)pyrrolidinyl]-N-methylamine dihydrochloride] the Ki [1] was 1.5 nM.

Compound `Cc1cc(N2CC[C@@H](N)C2)cnc1F` [Example 27, (3R)-1-(6-fluoro-5-methyl-3-pyridinyl)pyrrolidinylamine hydrochloride] has a Ki [1] of 0.44 nM.

`CN[C@@H]1CCN(c2cnc(F)c(C)c2)C1` [Example 28, N-[(3R)-1-(6-fluoro-5-methyl-3-pyridinyl)pyrrolidinyl]-N-methylamine dihydrochloride] was tested, and the Ki [1] was 39 nM.

Work on `N[C@H]1CCN(c2cncc([N+](=O)[O-])c2)C1` [Example 29, (3S)-1-(5-nitro-3-pyridinyl)pyrrolidinylamine fumarate] yielded a Ki [1] of 0.7 nM and a minimal effective dose [2] of 19 µmol/kg.

In the case of `CN[C@H]1CCN(c2cncc([N+](=O)[O-])c2)C1` [Example 30, N-methyl-N-[(3S)-1-(5-nitro-3-pyridinyl)pyrrolidinyl]amine fumarate], the Ki [1] is reported as 12 nM.

For `CN[C@@H]1CCN(c2cncc([N+](=O)[O-])c2)C1` [Example 32, N-methyl-N-[(3R)-1-(5-nitro-3-pyridinyl)pyrrolidinyl]amine fumarate], the Ki [1] was 195 nM.

Compound `NC1CCN(c2ccc(Cl)nc2)CC1` [Example 37, 1-(6-chloro-3-pyridinyl)-4-piperidinylamine 4-methylbenzenesulfonate] has a Ki [1, 3] of 92 nM.

In the case of `CN[C@@H]1CCCN(c2cccnc2)C1` [Example 44, N-methyl-N-[(3R)-1-(3-pyridinyl)piperidinyl]amine dihydrochloride], the Ki [1] is reported as 205 nM.

Work on `NC1CN(c2ccc(Cl)nc2)C1` [Example 50, 1-(6-chloro-3-pyridinyl)-3-azetidinylamine 4-methylbenzenesulfonate] yielded a Ki [1, 3] of 174 nM.

With `N[C@@H]1CCN(c2cccnc2)[C@@H]1CCl` [Example 51, (2S,3R)-2-(chloromethyl)-1-(3-pyridinyl)pyrrolidinylamine dihydrochloride] the Ki [1] was 714 nM.
